Assay [1] can be described thus: Test 4: Inhibition of Cellular Release of Amyloid Peptide 1-40. The format is cell-based, Chinese hamster. As to conditions: Cricetulus griseus; CHO cells with human APP, 24 hours with compound; read-out: Test 4 Amyloid-β1-40 release IC50. How it is done:
The cells are plated at a density of 8000 cells/well into 96-well microtiter plates and cultivated for 24 hours in DMEM cell culture medium containing 10% FCS. The test compound is added to the cells at various concentrations, and the cells are cultivated for 24 hours in the presence of the test compound. […] The potency of the compound is calculated from the percentage of inhibition of amyloid peptide release as a function of the test compound concentration.

Another assay deals with Human BACE-2 (Homo sapiens (Human), UniProt Q9Y5Z0). As to the kind of experiment: Test 2: Inhibition of Human BACE-2. Type of assay: biochemical. The settings on record: recombinant BACE-2, pH 4.5, 1 hour preincubation. How it is done:
Test 2: Inhibition of Human BACE-2
(§1) Recombinant BACE-2 (extracellular domain, expressed in baculovirus and purified using standard methods) at 0.1 to 1 nM concentrations is incubated with the test compound at various concentrations for 1 hour at room temperature in 100 mM acetate buffer, pH 4.5, containing 0.1% CHAPS. Activity was measured using a final concentration of 3 μM of the fluorescence-quenched substrate Q-C(HSO3)-Ile-Asp-Leu-Ala-Val-Leu-Asp-HN—CH2—CH2-Mca, where Q=2-nitro-5-amino benzoic acid and Mca=7-methoxy-4-coumarinyl acetic acid. Catalytic turnover was monitored in a Spectramax Gemini fluorescence plate reader (Molecular Devices) in black 96-well microplates using excitation/emission wavelength of 325 nm and 400 nm, respectively. Fluorescence increase was followed for 15 min, in 1 minute's intervals. The fluorescence/time slopes were calculated from duplicate wells and from wells without inhibitor and the IC50 values were calculated using a logistic 4-parameter model.

Assay [2] has as its system Soluble Abeta40 levels in the rat brain and CSF. As to the kind of experiment: Test 5: In Vivo Inhibitory Activity (Abeta lowering in rat brain and CSF). As to conditions: male Sprague-Dawley rats, oral gavage, 10 micromoles per kilogram, 4 hours prior to sacrifice; n.s.=not statistically significant. The procedure: Test 5: In Vivo Inhibitory Activity of Example Compounds
Male Sprague-Dawley rats, 220-280 g weight, (Charles River, France) were dosed by oral gavage with vehicle alone (0.1% Tween80, 0.5% methylcellulose in water) or with compound suspended in vehicle at a dose of 10 micromoles compound per kilogram body weight, 4 hours prior to sacrifice. The 4 hour timepoint was selected in order to compare the activity of compounds that have sufficient pharmacokinetic and biodistribution properties to reduce total brain Abeta within approximately three half-lives of the rat brain Abeta40 peptide.
Immediately prior to sacrifice, anaesthetized rat (spontaneous inhalation, 2-5% Isoflurane and air) were fixed in a stereotaxic apparatus on a raised platform, with anesthesia maintained though a nose cone. The angle of the head was tilted downward, perpendicular to the body, and a hypodermic needle lowered through the skin behind the occipital ridge, into the Cisterna magna. Cerebrospinal fluid (CSF) was withdrawn (˜50-100 μL), dispensed into tubes (protein Lo-bind Eppendorf tubes for Abeta40 analysis, normal Eppendorph tubes for compound analysis), frozen on dry ice and stored at −80° C. until analysis. Rats were then immediately decapitated under anesthesia, trunk blood collected for analysis of compound levels and the brain retrieved. One half-forebrain was dissected by removing the cerebellum and olfactory bulbs, frozen in three pieces on a metal plate pre-cooled on frozen CO2 and stored in tubes at −80° C. until analysis for Abeta40. For the other half-brain, olfactory bulbs were discarded and a sagittal slice taken from the medial aspect, weighing ˜200-400 mg, placed in glass HPLC tubes and frozen on dry ice until analysis for compound levels.
Soluble Abeta40 levels in the rat brain and CSF were quantified using a Meso Scale Discovery (MSD) 96-well MULTI-ARRAY human/rodent (4G8) Abeta40 Ultrasensitive Assay (#K110FTE-3, Meso Scale Discovery, Gaithersburg, USA). Forebrain sample homogenates were prepared by sonication in 9 volumes (w/v) of ice cold TBA. Fifty μL of 2% TX-100 in TBS-complete was added to 50 μL aliquots of the homogenate to reach a final concentration of 1% TX-100 in a 1:20 dilution. Samples were incubated on ice for 15 min interrupted with 3 short vortexing steps, then centrifuged (100 000×g, 4° C., 15 min), and 50 μL of supernatant collected. This was further diluted 1:5 with 3% Blocker A solution from the MSD kit to a final dilution of 1:100 and applied to the MSD plate. CSF samples containing blood were excluded. All other CSF samples were diluted with 1% Blocker A solution (from manufacturers kit) to reach a 1:20 CSF dilution. Calibration curves were prepared in 1% Blocker A solution spiked with synthetic Abeta1-40 peptide. Samples and calibration standards were applied in duplicate at a volume of 25 μL per well. Abeta40 concentrations of samples were estimated from the standard curve using SOFTmax PRO4.0.

The next assay addresses Human BACE-1 (Homo sapiens (Human), UniProt P56817). As to the kind of experiment: Test 1: Inhibition of Human BACE-1. Type of assay: biochemical. The settings on record: recombinant BACE-1, pH 4.5, 1 hour preincubation. The procedure:
Test 1: Inhibition of Human BACE-1
as §1, with “BACE-1” for “BACE-2”

Human BACE-1, sequence (P56817 46-457): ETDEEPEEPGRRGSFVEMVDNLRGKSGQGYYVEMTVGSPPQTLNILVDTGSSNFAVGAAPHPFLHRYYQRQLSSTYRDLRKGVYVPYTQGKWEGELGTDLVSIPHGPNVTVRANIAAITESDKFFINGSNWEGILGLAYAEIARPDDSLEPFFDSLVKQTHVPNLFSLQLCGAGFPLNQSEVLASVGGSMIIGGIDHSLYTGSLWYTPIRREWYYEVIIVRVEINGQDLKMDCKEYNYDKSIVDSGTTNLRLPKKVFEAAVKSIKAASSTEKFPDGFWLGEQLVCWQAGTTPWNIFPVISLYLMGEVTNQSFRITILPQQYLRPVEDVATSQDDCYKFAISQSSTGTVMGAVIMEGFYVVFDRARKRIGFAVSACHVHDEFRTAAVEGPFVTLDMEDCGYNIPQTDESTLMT
Human BACE-2, sequence (Q9Y5Z0 63-473): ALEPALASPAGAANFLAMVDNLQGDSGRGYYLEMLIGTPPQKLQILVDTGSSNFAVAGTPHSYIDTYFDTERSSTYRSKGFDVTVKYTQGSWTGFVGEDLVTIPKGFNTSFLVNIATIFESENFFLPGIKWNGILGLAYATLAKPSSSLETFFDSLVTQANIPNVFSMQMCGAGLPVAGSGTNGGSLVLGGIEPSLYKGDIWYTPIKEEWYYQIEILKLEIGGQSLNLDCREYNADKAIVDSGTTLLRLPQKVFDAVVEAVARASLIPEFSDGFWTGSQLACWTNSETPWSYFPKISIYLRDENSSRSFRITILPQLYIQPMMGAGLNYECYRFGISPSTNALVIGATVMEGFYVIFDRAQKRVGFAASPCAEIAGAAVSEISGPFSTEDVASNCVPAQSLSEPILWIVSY

The term IC50 denotes the point on the concentration scale where inhibition reaches its midpoint. Regarding `C[C@]1(c2nc(NC(=O)c3ncc(C#N)cc3Cl)ccc2F)N=C(N)OCC1(F)F` [Example 2, 3-Chloro-5-cyano-pyridine-2-carboxylic acid [6-((R)-2-amino-5,5-difluoro-4-methyl-5,6-dihydro-4H-[1,3]oxazin-4-yl)-5-fluoro-pyridin-2-yl]-amide], the IC50 in assay [1] is 8 nM; at Human BACE-2, 71 nM; on Human BACE-1 it was 12 nM. Besides, the “Abeta lowering in rat CSF” value in assay [2] is on record as −70.7%. For the same molecule, in assay [2], the “Abeta lowering in rat forebrain” value is −67.1%.
The corresponding values for `C[C@]1(c2nc(NC(=O)c3nn(C(F)F)cc3Cl)ccc2F)N=C(N)OCC1(F)F` [Example 30, 4-Chloro-1-difluoromethyl-1H-pyrazole-3-carboxylic acid [6-((R)-2-amino-5,5-difluoro-4-methyl-5,6-dihydro-4H-[1,3]oxazin-4-yl)-5-fluoro-pyridin-2-yl]-amide] are 13 nM, 7 nM, 19 nM, −55.2% and −46.6%.

Values taken from patent publication US9163011B2, “Oxazine derivatives and their use in the treatment of disease” (NOVARTIS AG, priority 2011, dated 2015).
